Laboratory results taken from patent US7592023B2, “Transplant media” (Trophic Solutions LLC, priority 2000, dated 2009).

Legend:
[1] = tested on: primary kidney cell cultures; assay: cytoskeletal structure (actin and tubulin antibodies, confocal fluorescence microscopy) after cold storage, primary kidney cell cultures; assay type: cell-based; conditions: three days at cold temperatures
Text: (§1) This Example describes the effect UW solution supplemented with BNP-1 on cytoskeletal structure of kidney cells. Briefly, either MDCK cells or primary kidney cell cultures were stored for three days at cold temperatures in either UW solution, UW solution supplemented with BNP-1, or DMEM. The cells were then labeled with actin and tubulin antibodies and analyzed by confocal fluorescence microscopy. […] In these primary cells, the actin and tubulin filaments maintained a coarse clumpy pattern with considerable cortical condensation near the plasma membrane and only a limited amount of fine fibrillar structure that would be considered more normal.

[2] = tested on: MDCK cells; assay: cytoskeletal structure (actin and tubulin antibodies, confocal fluorescence microscopy) after cold storage, MDCK cells; assay type: cell-based; conditions: three days at cold temperatures
Text: as §1

[3] = tested on: bacteria, fungi, and enveloped viruses; conditions: cited from earlier work
[4] = tested on: panel of organisms in stationary growth phase; conditions: cited from earlier work

## BNP-1: bovine defensin peptide, SEQ ID NO: 37, rlcrivvirvcr; synthesized by Multiple Peptide Systems (RLCRIVVIRVCR; listed as Bos taurus)
[1]
  actin and tubulin after storage: the tubulin and actin were better stained and more persistent
[2]
  actin and tubulin after storage: better maintenance of actin and tubulin

## GPNP: guinea pig defensin, rrcicttrtcrfpyrrlgtcifqnrvytfcc (RRCICTTRTCRFPYRRLGTCIFQNRVYTFCC; Guinea pig cytomegalovirus)
[3]
  spectrum of antimicrobial activity: broad spectrum antimicrobial properties verified

## HNP-1: defensin isolated from human PMN's, acycripaciagerrygtciyqgrlwafcc
[4]
  antimicrobial properties, rank among defensins tested: most potent antimicrobial properties

## rabbit NP-1: rabbit neutrophil defensin, vvcacrralclprerragfcrirgrihplccrr (VVCACRRALCLPRERRAGFCRIRGRIHPLCCRR; listed as Oryctolagus cuniculus)
[4]
  antimicrobial properties, rank among defensins tested: most potent antimicrobial properties
